The values that follow come from US11414404B2, “Compounds for the treatment of BRAF-associated diseases and disorders” (Array BioPharma Inc., priority 2019, dated 2022).

Counter-ions that a name gives are not always drawn.

One data set deals with P-gp (MDR1) (Homo sapiens (Human), UniProt P08183). The experiment in a line: MDR1 LLC-PK1 permeability assay: efflux ratio. As to conditions: pig, LLC-PK1.
The nature of data set [1]: MDR1 LLC-PK1 and BCRP MDCKII permeability assay: permeability coefficient (Papp).
The target of a further data set is BCRP (Homo sapiens (Human), UniProt Q9UNQ0). The experiment in a line: BCRP MDCKII permeability assay: efflux ratio. As to conditions: dog.
Data set [2] has as its target full-length FLAG-tagged B-Raf(V600E) (Homo sapiens (Human), UniProt P15056, V600E). Put plainly: BRAF V600E enzyme assay (TR-FRET competitive displacement of fluorescent tracer). As to conditions: averaged IC50; 60 min at ambient temperature; 11-point dosing, top dose 10 μM. The class given is binding. From the text: A competitive displacement assay was configured for B-Raf that monitors the amount of a fluorescently-tagged “tracer” bound to B-Raf via TR-FRET from an anti-tag Eu-labeled antibody also bound to B-Raf.
[formula] • where: • Xmax Average Uninhibited Controls • Xmin Average Background
A 4-parameter logistic model was the fit to the POC data for each compound.
(In TR-FRET formats the signal depends on donor and acceptor labels being close together.)

Sequence of full-length FLAG-tagged B-Raf(V600E) (P15056 whole entry V600E): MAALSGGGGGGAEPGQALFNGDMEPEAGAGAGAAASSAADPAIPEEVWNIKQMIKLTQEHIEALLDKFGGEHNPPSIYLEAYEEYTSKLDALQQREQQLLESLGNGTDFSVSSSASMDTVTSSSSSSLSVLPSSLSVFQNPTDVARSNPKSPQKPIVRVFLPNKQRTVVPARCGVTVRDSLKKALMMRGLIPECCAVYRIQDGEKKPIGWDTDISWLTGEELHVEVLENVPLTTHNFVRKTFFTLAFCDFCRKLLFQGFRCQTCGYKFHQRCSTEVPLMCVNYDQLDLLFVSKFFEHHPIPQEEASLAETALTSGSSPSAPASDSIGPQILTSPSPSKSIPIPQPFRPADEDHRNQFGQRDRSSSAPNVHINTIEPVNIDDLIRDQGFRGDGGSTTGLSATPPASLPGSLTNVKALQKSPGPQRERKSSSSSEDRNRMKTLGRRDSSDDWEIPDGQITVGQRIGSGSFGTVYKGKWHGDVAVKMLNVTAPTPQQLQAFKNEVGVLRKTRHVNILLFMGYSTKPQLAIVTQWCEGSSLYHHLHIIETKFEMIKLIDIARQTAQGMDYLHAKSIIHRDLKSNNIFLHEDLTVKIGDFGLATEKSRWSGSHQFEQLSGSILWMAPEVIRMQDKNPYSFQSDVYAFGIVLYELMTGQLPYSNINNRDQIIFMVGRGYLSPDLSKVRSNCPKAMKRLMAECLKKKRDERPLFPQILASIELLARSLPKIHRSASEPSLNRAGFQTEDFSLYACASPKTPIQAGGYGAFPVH
Sequence of BCRP (Q9UNQ0 whole entry, species assumed): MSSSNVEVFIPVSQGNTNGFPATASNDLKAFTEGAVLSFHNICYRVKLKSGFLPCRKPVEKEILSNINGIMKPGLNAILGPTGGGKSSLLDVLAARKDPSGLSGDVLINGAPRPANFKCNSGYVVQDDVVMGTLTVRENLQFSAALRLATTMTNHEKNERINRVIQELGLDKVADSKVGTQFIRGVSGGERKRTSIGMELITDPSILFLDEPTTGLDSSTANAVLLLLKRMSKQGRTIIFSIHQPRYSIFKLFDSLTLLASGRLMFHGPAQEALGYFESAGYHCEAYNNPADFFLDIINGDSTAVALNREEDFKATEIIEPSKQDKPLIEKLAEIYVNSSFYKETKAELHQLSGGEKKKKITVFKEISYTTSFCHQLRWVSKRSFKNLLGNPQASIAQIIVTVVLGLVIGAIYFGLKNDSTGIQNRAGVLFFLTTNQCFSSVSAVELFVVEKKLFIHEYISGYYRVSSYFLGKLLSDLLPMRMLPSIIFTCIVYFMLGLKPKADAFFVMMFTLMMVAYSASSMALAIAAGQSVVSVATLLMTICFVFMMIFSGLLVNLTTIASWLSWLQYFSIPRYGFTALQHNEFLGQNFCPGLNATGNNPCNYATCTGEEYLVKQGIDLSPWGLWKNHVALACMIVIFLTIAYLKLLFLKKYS
Sequence of P-gp (MDR1) (P08183 whole entry, species assumed): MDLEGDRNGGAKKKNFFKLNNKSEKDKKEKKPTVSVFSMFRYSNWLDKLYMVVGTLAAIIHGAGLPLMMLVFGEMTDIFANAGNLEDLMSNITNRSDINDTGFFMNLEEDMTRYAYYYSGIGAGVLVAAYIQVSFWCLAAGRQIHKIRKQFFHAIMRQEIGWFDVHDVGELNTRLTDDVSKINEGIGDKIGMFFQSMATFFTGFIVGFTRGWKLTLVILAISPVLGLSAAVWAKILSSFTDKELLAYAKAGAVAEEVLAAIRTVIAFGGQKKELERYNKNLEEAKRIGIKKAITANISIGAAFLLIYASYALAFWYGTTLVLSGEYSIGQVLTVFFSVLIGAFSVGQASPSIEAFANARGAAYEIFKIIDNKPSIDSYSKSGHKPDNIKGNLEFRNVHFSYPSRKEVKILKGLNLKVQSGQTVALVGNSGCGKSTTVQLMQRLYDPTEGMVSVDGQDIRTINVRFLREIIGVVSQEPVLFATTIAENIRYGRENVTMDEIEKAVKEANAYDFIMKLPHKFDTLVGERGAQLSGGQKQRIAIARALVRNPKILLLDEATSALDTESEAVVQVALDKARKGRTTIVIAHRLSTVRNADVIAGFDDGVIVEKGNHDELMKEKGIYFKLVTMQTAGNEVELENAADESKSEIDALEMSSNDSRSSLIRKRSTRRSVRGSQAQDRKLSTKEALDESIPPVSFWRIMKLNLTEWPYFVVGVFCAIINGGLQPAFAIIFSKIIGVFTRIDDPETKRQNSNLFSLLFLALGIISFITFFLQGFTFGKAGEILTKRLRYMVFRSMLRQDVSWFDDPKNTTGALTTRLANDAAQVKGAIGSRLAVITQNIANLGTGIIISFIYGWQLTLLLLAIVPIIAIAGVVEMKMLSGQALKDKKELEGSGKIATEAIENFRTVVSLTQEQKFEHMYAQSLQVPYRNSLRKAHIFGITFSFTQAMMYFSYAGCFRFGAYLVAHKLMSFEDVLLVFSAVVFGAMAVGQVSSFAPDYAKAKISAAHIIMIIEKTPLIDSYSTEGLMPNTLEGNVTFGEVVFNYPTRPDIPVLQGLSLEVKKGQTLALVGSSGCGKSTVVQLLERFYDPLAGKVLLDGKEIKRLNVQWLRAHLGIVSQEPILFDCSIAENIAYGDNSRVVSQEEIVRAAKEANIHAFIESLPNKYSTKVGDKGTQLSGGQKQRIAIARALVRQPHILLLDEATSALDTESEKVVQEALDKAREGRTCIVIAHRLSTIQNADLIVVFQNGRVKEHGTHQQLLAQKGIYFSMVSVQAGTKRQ
Experimental for P-gp (MDR1): Both LLC-PK1 and MDR1 transfected LLC-PK1 cells were cultured and plated according to manufacturer's recommendations with the exception that the passage media contained only 2% fetal bovine serum to extend passage time out to seven days.
Both positive and negative controls were used to assess functionality of P-gp or BCRP efflux in the assays. […] Final organic concentration in the assay was 1%. All dosing solutions contained 10 μM lucifer yellow to monitor LLC-PK1 or MDCKII cell monolayer integrity.
For the apical to basolateral determination (A to B), 75 μL of the test article in transport buffer were added to the apical side of the individual transwells and 250 μL of basolateral media, without compound or lucifer yellow, were added to each well. For the basolateral to apical determination (B to A), 250 μL of test article in transport buffer were added to each well and 75 μL transport buffer, without compound or lucifer yellow, were added to each transwell. All tests were performed in triplicate, and each compound was tested for both apical to basolateral and basolateral to apical transport. The plates were incubated for 2 hours on a Lab-Line Instruments Titer Orbital Shaker (VWR, West Chester, Pa.) at 50 rpm and 37° C. with 5% CO2. All culture plates were removed from the incubator and 50 μL of media were removed from the apical and basolateral portion of each well and added to 150 μL of 1 μM labetalol in 2:1 acetonitrile (acetonitrile): H2O, v/v.
These values were accepted when found to be below 2% for apical to basolateral and 5% basolateral to apical flux across the MDR1-transfected LLC-PK1 or BCRP-transfected MDCKII cell monolayers. The plates were sealed and the contents of each well analyzed by LC-MS/MS. The compound concentrations were determined from the ratio of the peak areas of the compound to the internal standard (labetalol) in comparison to the dosing solution.
The LC-MS/MS system was comprised of an HTS-PAL autosampler (Leap Technologies, Carrboro, N.C.), an HP1200 HPLC (Agilent, Palo Alto, Calif.), and a MDS Sciex 4000 Q Trap system (Applied Biosystems, Foster City, Calif.). […] The total run time, including re-equilibration, for a single injection was 1.2 minutes. Mass spectrometric detection of the analytes was accomplished using the ion spray positive mode.
An efflux ratio is calculated from the mean apical to basolateral (A−B) Papp data and basolateral to apical (B−A) Papp data: Efflux ratio=Papp(B−A)/Papp(A−B)

What is called efflux ratio is the permeability from basolateral to apical divided by that in the opposite direction, in the common usage. What is called Papp is a coefficient for how fast a substance crosses the barrier. Low values mean slow passage, high ones fast passage. For orientation: IC50 means the point on the concentration scale where inhibition reaches its midpoint. A low value points to greater potency. For `Cc1c(Nc2c(F)ccc(NS(=O)(=O)CCCF)c2F)ccc2ncn(C)c(=O)c12` [Example 2, N-(3-((3,5-dimethyl-4-oxo-3,4-dihydroquinazolin-6-yl)amino)-2,4-difluorophenyl)-3-fluoropropane-1-sulfonamide], the efflux ratio at 2 h, 1 µM at P-gp (MDR1) came out at 3.92; on BCRP, 18.6. This compound registered a Papp at 2 h, 1 µM in data set [1] of 30.1 ×10⁻⁶ cm/s. In data set [2], this compound gave an IC50 of 14.2 nM.

For the compound `CCCS(=O)(=O)Nc1cccc(Nc2ccc3ncn(C)c(=O)c3c2C)c1Cl` [Example 3, N-(2-chloro-3-((3,5-dimethyl-4-oxo-3,4-dihydroquinazolin-6-yl)amino)phenyl)propane-1-sulfonamide], the efflux ratio at 2 h, 1 µM came out at 1.37 on P-gp (MDR1) and 0.87 on BCRP. This compound showed a Papp at 2 h, 1 µM in data set [1] of 25.8 ×10⁻⁶ cm/s. The compound also showed a half-maximal inhibitory concentration (IC50) in data set [2] of 70.5 nM.

Turning to `CCCS(=O)(=O)Nc1cc(F)c(F)c(Nc2ccc3ncn(C)c(=O)c3c2C)c1F` [Example 5, N-(3-((3,5-dimethyl-4-oxo-3,4-dihydroquinazolin-6-yl)amino)-2,4,5-trifluorophenyl)propane-1-sulfonamide], the efflux ratio at 2 h, 1 µM was 2.24 on P-gp (MDR1) and 8.33 on BCRP. The compound also returned a Papp at 2 h, 1 µM in data set [1] of 26.7 ×10⁻⁶ cm/s. The same compound had an IC50 in data set [2] of 6.25 nM.

For the compound `Cc1c(Nc2c(F)c(F)cc(NS(=O)(=O)CCCF)c2F)ccc2ncn(C)c(=O)c12` [Example 6, N-(3-((3,5-dimethyl-4-oxo-3,4-dihydroquinazolin-6-yl)amino)-2,4,5-trifluorophenyl)-3-fluoropropane-1-sulfonamide], the efflux ratio at 2 h, 1 µM at P-gp (MDR1) was 4.68; at BCRP, 25.2. This compound also displayed an apparent permeability (Papp) at 2 h, 1 µM in data set [1] of 22.2 ×10⁻⁶ cm/s. In data set [2], this compound showed an IC50 of 1.75 nM.

Regarding `Cc1c(Nc2c(F)c(F)cc(NS(=O)(=O)CCCF)c2Cl)ccc2ncn(C)c(=O)c12` [Example 8, N-(2-chloro-3-((3,5-dimethyl-4-oxo-3,4-dihydroquinazolin-6-yl)amino)-4,5-difluorophenyl)-3-fluoropropane-1-sulfonamide], the efflux ratio at 2 h, 1 µM at P-gp (MDR1) was determined as 1.61; on BCRP, 11.2. The same compound gave a Papp at 2 h, 1 µM in data set [1] of 27.5 ×10⁻⁶ cm/s. In data set [2], the IC50 was found to be 1.45 nM.

In data set [1], `Cc1c(Nc2c(F)ccc(NS(=O)(=O)CCCF)c2Cl)ccc2ncn(C)c(=O)c12` [Example 10, N-(2-chloro-3-((3,5-dimethyl-4-oxo-3,4-dihydroquinazolin-6-yl)amino)-4-fluorophenyl)-3-fluoropropane-1-sulfonamide] registered a Papp at 2 h, 1 µM of 41 ×10⁻⁶ cm/s.

`CCCS(=O)(=O)Nc1cc(F)cc(Nc2ccc3ncn(C)c(=O)c3c2C)c1F` [Example 11, N-(3-((3,5-dimethyl-4-oxo-3,4-dihydroquinazolin-6-yl)amino)-2,5-difluorophenyl)propane-1-sulfonamide]: the efflux ratio at 2 h, 1 µM worked out at 1.65 on P-gp (MDR1) and 2.35 at BCRP. Also, the Papp at 2 h, 1 µM in data set [1] is 28.6 ×10⁻⁶ cm/s. Also, the IC50 in data set [2] is 16.1 nM.

As to `CCCS(=O)(=O)Nc1cc(F)cc(Nc2ccc3ncn(C)c(=O)c3c2C)c1Cl` [Example 12, N-(2-chloro-3-((3,5-dimethyl-4-oxo-3,4-dihydroquinazolin-6-yl)amino)-5-fluorophenyl)propane-1-sulfonamide], the efflux ratio at 2 h, 1 µM is 0.93 at P-gp (MDR1) and 1.13 at BCRP. In data set [1], this compound came in with a Papp at 2 h, 1 µM of 27 ×10⁻⁶ cm/s. This compound returned an IC50 in data set [2] of 9.75 nM.

For `CCCS(=O)(=O)Nc1cc(Cl)cc(Nc2ccc3ncn(C)c(=O)c3c2C)c1F` [Example 13, N-(5-chloro-3-((3,5-dimethyl-4-oxo-3,4-dihydroquinazolin-6-yl)amino)-2-fluorophenyl)propane-1-sulfonamide], the results for the efflux ratio at 2 h, 1 µM on P-gp (MDR1) and at BCRP were 1.35 and 1.51, respectively. Besides, the Papp at 2 h, 1 µM in data set [1] is 24.3 ×10⁻⁶ cm/s. This compound also showed an IC50 in data set [2] of 4.6 nM.

In the case of `CCCS(=O)(=O)Nc1ccc(Cl)c(Nc2ccc3ncn(C)c(=O)c3c2C)c1Cl` [Example 14, N-(2,4-dichloro-3-((3,5-dimethyl-4-oxo-3,4-dihydroquinazolin-6-yl)amino)phenyl)propane-1-sulfonamide], the efflux ratio at 2 h, 1 µM on P-gp (MDR1) turned out to be 1.38; at BCRP, 1.08. This compound also displayed a Papp at 2 h, 1 µM in data set [1] of 26.5 ×10⁻⁶ cm/s. Also, in data set [2], the concentration for half-maximal inhibition (IC50) came to 13.9 nM.

With `CCCS(=O)(=O)Nc1ncc(Cl)c(Nc2ccc3ncn(C)c(=O)c3c2C)c1Cl` [Example 15, N-(3,5-dichloro-4-((3,5-dimethyl-4-oxo-3,4-dihydroquinazolin-6-yl)amino)pyridin-2-yl)propane-1-sulfonamide], the efflux ratio at 2 h, 1 µM on P-gp (MDR1) was found to be 1.87; on BCRP, 4.5. Further, in data set [1], the apparent permeability (Papp) at 2 h, 1 µM stood at 24.1 ×10⁻⁶ cm/s. The same compound displayed an IC50 in data set [2] of 4.55 nM.

For the compound `CCCS(=O)(=O)Nc1ncc(F)c(Nc2ccc3ncn(C)c(=O)c3c2C)c1F` [Example 16, N-(4-((3,5-dimethyl-4-oxo-3,4-dihydroquinazolin-6-yl)amino)-3,5-difluoropyridin-2-yl)propane-1-sulfonamide], the efflux ratio at 2 h, 1 µM was 4.76 on P-gp (MDR1) and 20.3 on BCRP. Further, the Papp at 2 h, 1 µM in data set [1] is 21.3 ×10⁻⁶ cm/s. Moreover, the IC50 in data set [2] was determined as 17 nM.

For the compound `Cc1c(Nc2c(F)cnc(NS(=O)(=O)CCCF)c2F)ccc2ncn(C)c(=O)c12` [Example 17, N-(4-((3,5-dimethyl-4-oxo-3,4-dihydroquinazolin-6-yl)amino)-3,5-difluoropyridin-2-yl)-3-fluoropropane-1-sulfonamide], the figures for the efflux ratio at 2 h, 1 µM on P-gp (MDR1) and at BCRP were 5.07 and 25.3, respectively. In data set [1], this compound displayed an apparent permeability (Papp) at 2 h, 1 µM of 6.65 ×10⁻⁶ cm/s. The compound further came in with an IC50 in data set [2] of 9.7 nM.

For `CCCS(=O)(=O)Nc1ncc(F)c(Nc2ccc3ncn(C)c(=O)c3c2C)c1Cl` [Example 18, N-(3-chloro-4-((3,5-dimethyl-4-oxo-3,4-dihydroquinazolin-6-yl)amino)-5-fluoropyridin-2-yl)propane-1-sulfonamide], the efflux ratio at 2 h, 1 µM came to 1.52 on P-gp (MDR1) and 10.4 on BCRP. Also, the Papp at 2 h, 1 µM in data set [1] amounted to 27.9 ×10⁻⁶ cm/s. For the same compound, the IC50 in data set [2] was determined as 7.85 nM.

Regarding `Cc1c(Nc2c(F)cnc(NS(=O)(=O)CCCF)c2Cl)ccc2ncn(C)c(=O)c12` [Example 19, N-(3-chloro-4-((3,5-dimethyl-4-oxo-3,4-dihydroquinazolin-6-yl)amino)-5-fluoropyridin-2-yl)-3-fluoropropane-1-sulfonamide], the figures for the efflux ratio at 2 h, 1 µM at P-gp (MDR1) and at BCRP were 3.24 and 21.1, respectively. The compound further came in with a Papp at 2 h, 1 µM in data set [1] of 15.9 ×10⁻⁶ cm/s. Besides, in data set [2], the IC50 worked out at 6.2 nM.

Consider `Cc1c(Nc2c(F)ccc(NS(=O)(=O)c3ccco3)c2Cl)ccc2ncn(C)c(=O)c12` [Example 20, N-(2-chloro-3-((3,5-dimethyl-4-oxo-3,4-dihydroquinazolin-6-yl)amino)-4-fluorophenyl)furan-2-sulfonamide], for which the values for the efflux ratio at 2 h, 1 µM on P-gp (MDR1) and at BCRP were 1.86 and 7.43, respectively. In addition, the Papp at 2 h, 1 µM in data set [1] came to 32.9 ×10⁻⁶ cm/s. The compound further had an IC50 in data set [2] of 0.7 nM.

With `Cc1c(Nc2c(F)ccc(NS(=O)(=O)N3CCCC3)c2Cl)ccc2ncn(C)c(=O)c12` [Example 21, N-(2-chloro-3-((3,5-dimethyl-4-oxo-3,4-dihydroquinazolin-6-yl)amino)-4-fluorophenyl)pyrrolidine-1-sulfonamide], the results for the efflux ratio at 2 h, 1 µM at P-gp (MDR1) and at BCRP were 1.22 and 0.77, respectively. The same compound gave an apparent permeability coefficient (Papp) at 2 h, 1 µM in data set [1] of 19.2 ×10⁻⁶ cm/s. In data set [2], the half-inhibitory concentration (IC50) turned out to be 34.7 nM.

With `Cc1c(Nc2c(F)ccc(NS(=O)(=O)N3CC[C@@H](F)C3)c2Cl)ccc2ncn(C)c(=O)c12` [Example 22, (R)—N-(2-chloro-3-((3,5-dimethyl-4-oxo-3,4-dihydroquinazolin-6-yl)amino)-4-fluorophenyl)-3-fluoropyrrolidine-1-sulfonamide], the figures for the efflux ratio at 2 h, 1 µM at P-gp (MDR1) and on BCRP were 1.63 and 1.49, respectively. In data set [1], this compound displayed an apparent permeability (Papp) at 2 h, 1 µM of 34.3 ×10⁻⁶ cm/s. The compound also came in with an IC50 in data set [2] of 13.7 nM.

As to `[2H]C([2H])([2H])n1cnc2ccc(Nc3c(F)ccc(NS(=O)(=O)CCCF)c3Cl)c(C)c2c1=O` [Example 23, N-(2-chloro-4-fluoro-3-((5-methyl-3-(methyl-d3)-4-oxo-3,4-dihydroquinazolin-6-yl)amino)-phenyl)-3-fluoropropane-1-sulfonamide], the Papp at 2 h, 1 µM in data set [1] was determined as 39.5 ×10⁻⁶ cm/s.

With `CCCS(=O)(=O)Nc1ccc(F)c(Nc2ccc3ncn(C(C)C)c(=O)c3c2C)c1Cl` [Example 36, N-(2-chloro-4-fluoro-3-((3-isopropyl-5-methyl-4-oxo-3,4-dihydroquinazolin-6-yl)amino)phenyl)propane-1-sulfonamide trifluoroacetate], the efflux ratio at 2 h, 1 µM was 1.17 on P-gp (MDR1) and 1.22 at BCRP. The compound further gave an IC50 in data set [2] of 26.4 nM.

As to `Cc1c(Oc2c(F)ccc(NS(=O)(=O)CCCF)c2F)ccc2ncn(C)c(=O)c12` [Example 56, N-(3-((3,5-dimethyl-4-oxo-3,4-dihydroquinazolin-6-yl)oxy)-2,4-difluorophenyl)-3-fluoropropane-1-sulfonamide], the figures for the efflux ratio at 2 h, 1 µM on P-gp (MDR1) and at BCRP were 2.81 and 3.14, respectively. For the same compound, the IC50 in data set [2] came out at 12.9 nM.

Take `CCCS(=O)(=O)Nc1nccc(Oc2ccc3ncn(C)c(=O)c3c2C)c1Cl` [Example 57, N-(3-chloro-4-((3,5-dimethyl-4-oxo-3,4-dihydroquinazolin-6-yl)oxy)pyridin-2-yl)propane-1-sulfonamide]: the efflux ratio at 2 h, 1 µM amounted to 0.91 at P-gp (MDR1) and 2.08 on BCRP. Also, the IC50 in data set [2] turned out to be 96 nM.
